Target: T1, human CRTH2 (Homo sapiens, UniProt Q9Y5Y4, V204A)
T1 sequence (Q9Y5Y4 1-395 V204A): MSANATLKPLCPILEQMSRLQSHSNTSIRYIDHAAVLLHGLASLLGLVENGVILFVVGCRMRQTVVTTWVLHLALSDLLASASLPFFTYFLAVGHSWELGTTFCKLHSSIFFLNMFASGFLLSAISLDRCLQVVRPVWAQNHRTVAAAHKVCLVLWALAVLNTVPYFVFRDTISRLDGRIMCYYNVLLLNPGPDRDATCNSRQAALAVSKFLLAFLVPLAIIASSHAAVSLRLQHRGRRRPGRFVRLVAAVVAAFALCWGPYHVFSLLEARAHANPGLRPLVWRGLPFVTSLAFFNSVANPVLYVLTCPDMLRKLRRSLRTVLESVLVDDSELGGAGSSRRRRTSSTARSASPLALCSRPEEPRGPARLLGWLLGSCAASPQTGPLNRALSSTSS
Assay: Functional antagonist BRET assay on HEK293 cells stably expressing human CRTH2-Rluc and GFP2-β-arr2
Type: cell-based
Set-up: expressed in transfected cells
Conditions: BRET, antagonist incubated 15 minutes prior to agonist; read-out: Antag. IC50
Text: (§1) Generation/origin of the cDNA Constructs. The coding sequence of the human CRTH2 receptor (genbank accession no NM_004778) was amplified by PCR from a human hippocampus cDNA library and inserted into the pcDNA3.1(+) expression vector (invitrogen) via 5′ HindIII and 3′ EcoRI. To generate a CRTH2-Renilla luciferase (CRTH2-Rluc) fusion protein, the CRTH2 coding sequence without a STOP codon and Rluc were amplified, fused in frame by PCR and subcloned into the pcDNA3.1(+)Zeo expression vector (invitrogen). Human β-arrestin2 (β-arr2) N-terminally tagged with GFP^2 (βarr2-GFP^2) and Renilla luciferase were purchased from BioSignal Packard Inc, (Montreal, Canada). The sequence identity of the construct was verified by restriction endonuclease digests and sequencing in both directions on an ABI Prism (Applied Biosystems, Foster City, Calif.).
(§2) Cell Culture and Transfection. COS-7 cells were grown in Dulbecco's modified Eagle's medium (DMEM) 1885 supplemented with 10% fetal bovine serum, 100 units/ml penicillin, […] streptomycin, and kept at 37° C. in a 10% CO2 atmosphere. HEK293 cells were maintained in Minimum Essential medium (MEM) supplemented with 10% (v/v) heat inactivated fetal calf serum (HIFCS), 2 mM Glutamax™-I, 1% non essential amino acids (NEAA), 1% sodium pyruvate and 10 μg/ml gentamicin. For binding experiments, COS7 cells were transiently transfected with the CRTH2 receptor using a calcium phosphate-DNA coprecipitation method with the addition of chloroquine (as described by Holst et al., 2001↓). To perform the functional Bioluminescence Resonance Energy Transfer (BRET) assays, a HEK293 cell clone stably expressing βarr2-GFP^2 and CRTH2-Rluc was generated (CRTH2-HEK293 cells).
BRET assay. Functional BRET assays were performed on HEK293 cells stably expressing human CRTH2-Rluc and GFP^2-β-arr2. Prior to their use in the BRET assay cells were detached and re-suspended in D-PBS with 1000 mg/L L-Glucose at a density of 2×10^6 cells/mL. DeepBlueC™ was diluted to 50 μM in D-PBS with 1000 mg/L L-Glucose (light sensitive). 100 μL of cell suspension was transferred to wells in a 96-well microplate (white OptiPlate) and placed in the Mithras LB 940 instrument (BERTHOLD TECHNOLOGIES, Bad Wildbad, Germany). 12 μL/well agonist was then injected by injector 1 and 10 μL/well DeepBlueC™ was injected simultaneously by injector 2. Five seconds after the injections the light output from the well was measured sequentially at 400 nm and 515 nm, and the BRET signal (mBRET ratio) was calculated by the ratio of the fluorescence emitted by GFP^2-β-arr2 (515 nm) over the light emitted by the receptor-Rluc (400 nm). Antagonists were added before placing the microplates into the Mithras LB 940 and allowed to incubate for 15 minutes prior to the addition of agonist and DeepBlueC™. Compounds were dissolved in DMSO and the final DMSO concentration was kept constant at 1% in the assay.
(§3) Curve analysis was performed with the GraphPadPrism software 3.0 (Graphpad Prism Inc., San Diego, USA) and IC50 values were calculated as a measure of the antagonistic potencies.

IC50 [nM]	SMILES
> 5000	CCCCc1ccc(OCC(=O)O)c(C(=O)c2cnn(-c3ccccc3)c2)c1 [D75, [4-Butyl-2-(1-phenyl-1H-pyrazole-4-carbonyl)phenoxy]acetic acid]
< 500	C[C@H](Oc1ccc(Br)cc1C(=O)c1cnn(-c2ccccc2)c1)C(=O)O [(S)-D37, 2(S)-[4-Bromo-2-(1-phenyl-1H-pyrazole-4-carbonyl)-phenoxy]-propionic acid]
< 500	O=C(O)COc1ccc(Br)cc1C(=O)c1cnn(-c2cc(Cl)ccc2Cl)c1 [D59, {4-Bromo-2-[1-(2,5-dichlorophenyl)-1H-pyrazole-4-carbonyl]phenoxy}acetic acid]
< 500	CC(Oc1ccc(Br)cc1C(=O)c1cnn(Cc2ccccc2)c1)C(=O)O (stereo not drawn) [D57, 2-[2-(1-Benzyl-1H-pyrazole-4-carbonyl)-4-bromophenoxy]propionic acid]
< 500	O=C(O)COc1ccc(Br)cc1C(=O)c1cnn(-c2ccc(Br)cc2Cl)c1 [D34, 4-Bromo-2-[1-(4-bromo-2-chlorophenyl)-1H-pyrazole-4-carbonyl]phenoxyacetic acid]
< 500	CCc1cccc(C)c1-n1cc(C(=O)c2cc(Br)ccc2OCC(=O)O)cn1 [D72, {4-Bromo-2-[1-(2-ethyl-6-methylphenyl)-1H-pyrazole-4-carbonyl]phenoxy}acetic acid]

Same assay, conditions: functional antagonist assay, Table 3; read-out: Antag. IC50

IC50 [nM]	SMILES
< 500	O=C(O)COc1ccc(Br)cc1-c1nc(Cc2ccccc2Cl)no1 [D120, {4-Bromo-2-[3-(2-chloro-benzyl)-[1,2,4]oxadiazol-5-yl]-phenoxy}-acetic acid]
< 500	O=C(O)COc1ccc(Br)cc1-c1nc(Cc2ccc(Cl)c(Cl)c2)no1 [D123, {4-Bromo-2-[3-(3,4-dichlorobenzyl)-[1,2,4]oxadiazol-5-yl]-phenoxy}acetic acid]
< 500	O=C(O)COc1ccc(Br)cc1-c1nc(-c2ccc(OC(F)(F)F)cc2)no1 [D103, {4-Bromo-2-[3-(4-trifluoromethoxyphenyl)-[1,2,4]oxadiazol-5-yl]phenoxy}acetic acid]
< 500	O=C(O)COc1ccc(Br)cc1-c1nc(Cc2ccc(OC(F)(F)F)cc2)no1 [D113, {4-Bromo-2-[3-(4-trifluoromethoxy-benzyl)-[1,2,4]oxadiazol-5-yl]-phenoxy}-acetic acid]
< 500	Cc1ccc(Cc2noc(-c3cc(Br)ccc3OCC(=O)O)n2)cc1 [D126, {4-Bromo-2-[3-(4-methylbenzyl)-[1,2,4]oxadiazol-5-yl]phenoxy}acetic acid]
< 500	CC(=O)Nc1ccc(Cc2noc(-c3cc(Br)ccc3OCC(=O)O)n2)cc1 [D131, {2-[3-(4-Acetylaminobenzyl)-[1,2,4]oxadiazol-5-yl]-4-bromophenoxy}acetic acid]
< 500	O=C(O)COc1ccc(Br)cc1-c1nc(-c2cccc(C(F)(F)F)c2)no1 [D112, {4-Bromo-2-[3-(3-trifluoromethylphenyl)-[1,2,4]oxadiazol-5-yl]phenoxy}-acetic acid]

Target: T1, human CRTH2
Assay: Receptor binding assay: [3H]PGD2 competition binding on whole COS-7 cells transiently transfected with CRTH2 (also stable HEK293 cells)
Set-up: expressed in transfected cells; host or cells: COS-7 (transient, calcium phosphate)
Conditions: competition with 0.1 nM [3H]PGD2, whole cells, 3 h at 4° C.
Text: as §1, §2
Binding assay. 24 h after transfection COS-7 cells were seeded into 96 well plates at a density of 30.000 cells/well. Competition binding experiments on whole cells were then performed about 18-24 h later using 0.1 nM [^3H]PGD2 (NEN, 172 Ci/mmol) in a binding buffer consisting of HBSS (GIBCO) and 10 mM HEPES. Competing ligands were diluted in DMSO which was kept constant at 1% (v/v) of the final incubation volume. Total and nonspecific binding were determined in the absence and presence of 10 μM PGD2. Binding reactions were routinely conducted for 3 h at 4° C. and terminated by 2 washes (100 μl each) with ice cold binding buffer. Radioactivity was determined by liquid scintillation counting in a TOPCOUNTER (Packard) following over night incubation in Microscint 20. Stable HEK293 cells were seeded at a density of 30.000 cells/well 18-24 h prior to the binding assay which was performed essentially as described for COS7 cells above. Determinations were made in duplicates.
as §3

IC50 [nM]	SMILES
< 500	CCCCc1ccc(OCC(=O)O)c(C(=O)c2cnn(-c3ccccc3)c2)c1 [D75, [4-Butyl-2-(1-phenyl-1H-pyrazole-4-carbonyl)phenoxy]acetic acid]
< 500	C[C@H](Oc1ccc(Br)cc1C(=O)c1cnn(-c2ccccc2)c1)C(=O)O [(S)-D37, 2(S)-[4-Bromo-2-(1-phenyl-1H-pyrazole-4-carbonyl)-phenoxy]-propionic acid]
< 500	O=C(O)COc1ccc(Br)cc1C(=O)c1cnn(-c2cc(Cl)ccc2Cl)c1 [D59, {4-Bromo-2-[1-(2,5-dichlorophenyl)-1H-pyrazole-4-carbonyl]phenoxy}acetic acid]
< 500	CC(Oc1ccc(Br)cc1C(=O)c1cnn(Cc2ccccc2)c1)C(=O)O (stereo not drawn) [D57, 2-[2-(1-Benzyl-1H-pyrazole-4-carbonyl)-4-bromophenoxy]propionic acid]
< 500	O=C(O)COc1ccc(Br)cc1C(=O)c1cnn(-c2ccc(Br)cc2Cl)c1 [D34, 4-Bromo-2-[1-(4-bromo-2-chlorophenyl)-1H-pyrazole-4-carbonyl]phenoxyacetic acid]
< 500	CCc1cccc(C)c1-n1cc(C(=O)c2cc(Br)ccc2OCC(=O)O)cn1 [D72, {4-Bromo-2-[1-(2-ethyl-6-methylphenyl)-1H-pyrazole-4-carbonyl]phenoxy}acetic acid]
< 500	O=C(O)COc1ccc(Br)cc1C(=O)c1cc(-c2c(Cl)cccc2Cl)no1 [D98, {4-Bromo-2-[3-(2,6-dichloro-phenyl)isoxazole-5-carbonyl]phenoxy}acetic acid]

Same assay, conditions: receptor binding assay, Table 3

IC50 [nM]	SMILES
< 500	O=C(O)COc1ccc(Br)cc1-c1nc(Cc2ccccc2Cl)no1 [D120, {4-Bromo-2-[3-(2-chloro-benzyl)-[1,2,4]oxadiazol-5-yl]-phenoxy}-acetic acid]
< 500	O=C(O)COc1ccc(Br)cc1-c1nc(Cc2ccc(Cl)c(Cl)c2)no1 [D123, {4-Bromo-2-[3-(3,4-dichlorobenzyl)-[1,2,4]oxadiazol-5-yl]-phenoxy}acetic acid]
< 500	O=C(O)COc1ccc(Br)cc1-c1nc(-c2ccc(OC(F)(F)F)cc2)no1 [D103, {4-Bromo-2-[3-(4-trifluoromethoxyphenyl)-[1,2,4]oxadiazol-5-yl]phenoxy}acetic acid]
< 500	O=C(O)COc1ccc(Br)cc1-c1nc(Cc2ccc(OC(F)(F)F)cc2)no1 [D113, {4-Bromo-2-[3-(4-trifluoromethoxy-benzyl)-[1,2,4]oxadiazol-5-yl]-phenoxy}-acetic acid]
< 500	Cc1ccc(Cc2noc(-c3cc(Br)ccc3OCC(=O)O)n2)cc1 [D126, {4-Bromo-2-[3-(4-methylbenzyl)-[1,2,4]oxadiazol-5-yl]phenoxy}acetic acid]
< 500	CC(=O)Nc1ccc(Cc2noc(-c3cc(Br)ccc3OCC(=O)O)n2)cc1 [D131, {2-[3-(4-Acetylaminobenzyl)-[1,2,4]oxadiazol-5-yl]-4-bromophenoxy}acetic acid]
< 500	O=C(O)COc1ccc(Br)cc1-c1nc(-c2cccc(C(F)(F)F)c2)no1 [D112, {4-Bromo-2-[3-(3-trifluoromethylphenyl)-[1,2,4]oxadiazol-5-yl]phenoxy}-acetic acid]

— patent publication US20110269763A1, “CRTH2 receptor ligands for medicinal uses” (7TM Pharma A/S, priority 2004, published 2011)
